This is an account of results in publication PMC9219090 (ACS Omega, 2022).

A value given as a limit tells only on which side of the number the result lay.

One series concerns the target T1, MMP-2 (Homo sapiens, UniProt P08253).
T1 sequence (P08253 110-660): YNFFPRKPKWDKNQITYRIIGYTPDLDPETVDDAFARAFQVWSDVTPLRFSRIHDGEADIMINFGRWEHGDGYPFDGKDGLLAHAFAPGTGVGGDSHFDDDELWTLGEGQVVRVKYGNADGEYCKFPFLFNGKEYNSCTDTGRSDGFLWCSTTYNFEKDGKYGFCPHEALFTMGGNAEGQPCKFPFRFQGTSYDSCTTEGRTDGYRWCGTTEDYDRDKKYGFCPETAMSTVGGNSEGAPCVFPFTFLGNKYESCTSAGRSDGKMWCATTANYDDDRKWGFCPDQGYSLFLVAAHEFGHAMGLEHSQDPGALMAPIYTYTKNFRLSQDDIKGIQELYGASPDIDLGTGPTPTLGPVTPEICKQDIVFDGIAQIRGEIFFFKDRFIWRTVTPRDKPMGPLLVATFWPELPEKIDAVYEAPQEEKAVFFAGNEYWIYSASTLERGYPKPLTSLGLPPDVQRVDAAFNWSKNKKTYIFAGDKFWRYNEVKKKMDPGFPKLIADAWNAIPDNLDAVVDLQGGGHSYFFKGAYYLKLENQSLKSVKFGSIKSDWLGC
Kind of series: MMP-2 Inhibitor Screening Assay Kit. The format is biochemical. The note with it: read-out: IC50 MMP-2.

Another series has as its target MMP-9 (Homo sapiens, UniProt P14780). Kind of series: MMP-9 Colorimetric Assay Kit for Drug Discovery. The format is biochemical. The conditions noted are these: read-out: IC50 MMP-9.
A further series deals with MMP-10 (Homo sapiens, UniProt P09238). Kind of series: MMP-10 Assay Kit. The note with it: read-out: IC50 MMP-10.
Chain of MMP-10 (P09238 99-476): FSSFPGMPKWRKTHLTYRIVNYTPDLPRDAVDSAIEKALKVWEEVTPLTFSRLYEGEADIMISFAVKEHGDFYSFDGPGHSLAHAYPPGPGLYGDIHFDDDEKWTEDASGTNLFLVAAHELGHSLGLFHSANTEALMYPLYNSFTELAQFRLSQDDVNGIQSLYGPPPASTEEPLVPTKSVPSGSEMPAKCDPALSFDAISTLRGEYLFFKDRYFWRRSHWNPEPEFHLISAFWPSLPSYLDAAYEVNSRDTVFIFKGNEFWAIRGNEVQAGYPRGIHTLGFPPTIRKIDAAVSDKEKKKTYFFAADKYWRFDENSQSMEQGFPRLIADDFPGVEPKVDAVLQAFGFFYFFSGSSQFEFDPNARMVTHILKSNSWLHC
A further series deals with T2, MMP-7 (Homo sapiens, UniProt P09237).
T2 sequence (P09237 95-267): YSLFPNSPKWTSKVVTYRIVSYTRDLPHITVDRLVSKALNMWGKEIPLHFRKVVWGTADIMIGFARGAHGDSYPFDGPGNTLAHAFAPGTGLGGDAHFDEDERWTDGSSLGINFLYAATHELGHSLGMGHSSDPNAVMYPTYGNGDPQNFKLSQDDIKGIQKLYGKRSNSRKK
In words: MMP-7 Inhibitor Screening Assay Kit. The note with it: read-out: IC50 MMP-7.

A further series has as its target MMP-13 (Homo sapiens, UniProt P45452). Kind of series: MMP-13 Inhibitor Screening Assay Kit. The conditions noted are these: read-out: IC50 MMP-13.
The test system of series [1] is MDA-MB 231. Kind of series: MTT antiproliferative evaluation on MDA-MB 231 cells. Type of series: cell-based. The note with it: Homo sapiens, MDA-MB-231, 72 h, read-out: IC50 MDA-MB 231.
Series [2] deals with Caco-2. Kind of series: MTT antiproliferative evaluation on Caco-2 cells. The format is cell-based. The note with it: Homo sapiens, Caco-2, 72 h, read-out: IC50 Caco-2.
Series [3] deals with MDA-MB 231. In words: Flow cytometric annexin V/PI analysis of apoptosis in MDA-MB 231. The format is cell-based, human. The conditions noted are these: MDA-MB 231, at 3 nM, 72 h, mean ± SEM. On the technique in general: Flow cytometry measures light scatter and fluorescence of single cells or particles in a stream.
The subject of series [4] is Caco-2. Kind of series: Flow cytometric annexin V/PI analysis of apoptosis in Caco-2. The format is cell-based, human. The note with it: Caco-2, at 3 nM, 72 h, mean ± SEM.
The test system of a further series is tumor growth. The note with it: mouse models; cited from earlier work.

Chain of MMP-9 (P14780 94-707): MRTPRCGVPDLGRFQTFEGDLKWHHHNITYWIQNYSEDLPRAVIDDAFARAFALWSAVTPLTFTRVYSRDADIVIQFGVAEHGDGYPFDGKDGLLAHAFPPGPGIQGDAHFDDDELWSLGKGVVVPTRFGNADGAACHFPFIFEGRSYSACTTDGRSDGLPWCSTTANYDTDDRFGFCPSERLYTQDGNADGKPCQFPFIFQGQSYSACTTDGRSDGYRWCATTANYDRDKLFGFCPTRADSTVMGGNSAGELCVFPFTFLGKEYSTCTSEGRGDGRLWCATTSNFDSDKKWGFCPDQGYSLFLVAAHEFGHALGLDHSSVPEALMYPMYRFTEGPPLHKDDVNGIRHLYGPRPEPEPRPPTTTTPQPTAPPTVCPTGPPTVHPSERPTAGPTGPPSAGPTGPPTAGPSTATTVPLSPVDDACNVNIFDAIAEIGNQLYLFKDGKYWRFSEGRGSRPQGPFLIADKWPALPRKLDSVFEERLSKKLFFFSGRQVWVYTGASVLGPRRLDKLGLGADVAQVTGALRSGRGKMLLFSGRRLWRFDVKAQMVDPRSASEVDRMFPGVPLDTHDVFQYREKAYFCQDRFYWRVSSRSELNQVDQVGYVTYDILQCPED

In general, IC50 refers to the concentration that gives 50% inhibition. For the molecule `COc1ccc(S(=O)(=O)N(CC(=O)NO)CC(C)C)cc1` [NNGH, N-isobutyl-N-(4-methoxyphenylsulfonyl)glycyl hydroxamic acid], the IC50 worked out at 0.077 µM at MMP-2; 0.073 µM on MMP-9; 0.101 µM at MMP-10; 0.24 µM on MMP-7; 0.36 µM at MMP-13.
Consider `O=C(NO)c1ccc(Nc2nc(Nc3ccc(C(=O)NO)cc3)nc(Nc3ccc(C(=O)NO)cc3)n2)cc1` [compound 13, 4,4′,4′′-((1,3,5-Triazine-2,4,6-triyl)tris(azanediyl))tris(N-hydroxybenzamide)], for which the values for the IC50 in the series on MDA-MB 231 [1] and in the series with Caco-2 [2] were 0.0944 ± 0.0106 µM and 0.0384 ± 0.0016 µM, respectively.
Turning to `COc1cccc2c1C(=O)c1c(O)c3c(c(O)c1C2=O)C[C@@](O)(C(=O)CO)C[C@@H]3O[C@H]1C[C@H](N)[C@H](O)[C@H](C)O1` [DOX, doxorubicin], the IC50 in the series on MDA-MB 231 [1] was 0.0107 ± 0.0003 µM. Besides, the “total % of the apoptotic cell population, MDA-MBA 231” value in the series on MDA-MB 231 [3] is recorded as 19.9 ± 1.6%; in the series on MDA-MB 231 [3] (listed as doxorubicin) it was less than 32%. The “total % of the apoptotic cell population, Caco-2” value is 31.7 ± 2.7% with Caco-2 [4] and less than 32% in the series with Caco-2 [4] (listed as doxorubicin).
`O=C(NNc1nc(O)nc(O)n1)c1ccc(Nc2nc(Nc3ccc(C(=O)NNc4nc(O)nc(O)n4)cc3)nc(Nc3ccc(C(=O)NNc4nc(O)nc(O)n4)cc3)n2)cc1` [compound 12, 4,4′,4′′-((1,3,5-Triazine-2,4,6-triyl)tris(azanediyl))tris(N′-(4,6-dihydroxy-1,3,5-triazin-2-yl)benzohydrazide)]: the results for the IC50 in the series with MDA-MB 231 [1] and in the series with Caco-2 [2] were 0.0709 ± 0.0037 µM and 0.0528 ± 0.0038 µM, respectively.

B1: andecaliximab (antibody, chains of the INN, looked up, V domains shown)
VH: QVQLQESGPGLVKPSETLSLTCTVSGFSLLSYGVHWVRQPPGKGLEWLGVIWTGGTTNYNSALMSRFTISKDDSKNTVYLKMNSLKTEDTAIYYCARYYYGMDYWGQGTLVTVSS
VL: DIQMTQSPSSLSASVGDRVTITCKASQDVRNTVAWYQQKPGKAPKLLIYSSSYRNTGVPDRFSGSGSGTDFTLTISSLQAEDVAVYYCQQHYITPYTFGGGTKVEIK
As to B1, the “tumor growth and metastases incidence” value in the series with tumor growth is “reduced the tumor growth and metastases incidence”.
